Measured values: patent US10117430B2, “Malononitrile compounds for controlling animal pests” (BASF SE, priority 2012, dated 2018)

What was measured:
Type in all cases: in vivo
[1] = test system: Yellow Fever Mosquito (Aedes aegypti); assay: whole plant or invertebrate; conditions: 48 h, in comparison with untreated controls, larval mortality after 2 days
Summary of the method: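 Freshly hatched larvae (5-15 per well) in 200 μl tap water; compounds formulated in 75% water/25% DMSO and sprayed at 2.5 μl per well at several concentrations, two replicates. Incubated 2 days at 28±1° C., 80±5% RH; larval mortality scored visually.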

[2] = test system: Vetch Aphid (Megoura viciae); assay: B.7 Vetch aphid test on broad bean leaf disks; conditions: foliar, 120 h, in comparison with untreated controls, 5 days
Summary of the method: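 Broad bean leaf disks sprayed with compounds in 25% DMSO/75% water at several concentrations, two replicates, then air-dried. Infested with 5-8 adult Megoura viciae and held 5 days at about 23±1 °C and 50±5% RH. Mortality and fecundity scored visually.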

[3] = test system: Southern Armyworm (Spodoptera eridania); assay: B.6 Southern armyworm test on sprayed lima bean plants; conditions: 96 h, 500 ppm, in comparison with untreated controls, 4 days after treatment
Summary of the method: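 Lima bean plants at the 1st true leaf stage were sprayed with cyclohexanone-based solutions diluted in 50% acetone/water with 0.01% nonionic surfactant. Once dry, plants were bagged with 10–11 larvae and held at 25 °C and 20–40% RH. Mortality and reduced feeding were scored at 4 days against untreated plants.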

[4] = test system: Rice brown plant hopper (Nilaparvata lugens); assay: B.11 Rice brown plant hopper test on sprayed rice seedlings; conditions: in comparison with untreated controls, after 72 hours
Summary of the method: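 Compounds formulated in 50:50 acetone:water with 0.1% vol/vol surfactant and sprayed onto potted rice seedlings. Air-dried plants were caged, infested with 10 adults and held at about 28-29 °C, 50-60% RH. Percent mortality scored after 72 hours.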

[5] = test system: Green Peach Aphid (Myzus persicae); assay: B.3 Green peach aphid systemic test, artificial diet under membrane; conditions: 72 h, concentration of the test solution 2500 mg/L, 3 days
Summary of the method: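 Systemic uptake from artificial liquid diet beneath a membrane, compound formulated in 75% water/25% DMSO and added to diet at several concentrations, two replicates. 5-8 adult aphids fed on treated diet for 3 days at about 23±1° C. and 50±5% RH. Mortality and fecundity scored visually.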

[6] = test system: Mediterranean Fruitfly (Ceratitis capitata); assay: B.2 Mediterranean fruitfly microtiter diet test, egg and larval mortality; conditions: 120 h, in comparison with untreated controls, egg and larval mortality after 5 days
Summary of the method: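 Microtiter plates held insect diet with 50-80 C. capitata eggs; compounds in 75% water/25% DMSO were sprayed onto the diet at various concentrations, two replicates. Plates kept about 5 days at 28±1 °C and 80±5% RH, then egg and larval mortality scored visually.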

[7] = test system: Green Peach Aphid (Myzus persicae); assay: B.13 Green peach aphid test on sprayed bell pepper plants; conditions: 120 h, in comparison with untreated controls, after 5 days
Source text: B.13 Green Peach Aphid (Myzus persicae)
The active compounds were formulated in cyclohexanone as a 10,000 ppm solution supplied in tubes. The tubes were inserted into an automated electrostatic sprayer equipped with an atomizing nozzle and they served as stock solutions for which lower dilutions were made in 50% acetone:50% water (v/v). A nonionic surfactant (Kinetic®) was included in the solution at a volume of 0.01% (v/v). Bell pepper plants at the first true-leaf stage were infested prior to treatment by placing heavily infested leaves from the main colony on top of the treatment plants. Aphids were allowed to transfer overnight to accomplish an infestation of 30-50 aphids per plant and the host leaves were removed. The infested plants were then sprayed by an automated electrostatic plant sprayer equipped with an atomizing spray nozzle. The plants were dried in the sprayer fume hood, removed, and then maintained in a growth room under fluorescent lighting in a 24-hr photoperiod at about 25° C. and about 20-40% relative humidity. Aphid mortality on the treated plants, relative to mortality on untreated control plants, was determined after 5 days.

N#CC(C#N)(Cc1ccc(C(F)(F)F)nc1)c1cc(F)cc(F)c1 [II-34]
≥ 75%: mortality at 2500 ppm [1] | mortality at 2500 ppm [2] | mortality at 500 ppm [3] | mortality at 300 ppm [4] | mortality at 2500 µg/mL [5] | mortality at 2500 ppm [6] | mortality at 300 ppm [7]
